Measurements published in the supplement of paper PMC10307832.

Legend:
Assay in all cases: relative viability (nuclei count vs DMSO), 5 days (fraction); higher = more cells survive
Quizartinib + Pemetrexed = compound: CC(C)(C)c1cc(NC(=O)Nc2ccc(-c3cn4c(n3)sc3cc(OCCN5CCOCC5)ccc34)cc2)no1 [Quizartinib] + Nc1nc2[nH]cc(CCc3ccc(C(=O)N[C@@H](CCC(=O)O)C(=O)O)cc3)c2c(=O)[nH]1 [Pemetrexed] (partner 0.2 µM)
Procedure, shortened: (§1)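 Relative viability equals treated-well nuclei counts divided by vehicle-well nuclei counts. Counts came from 4× images of lung cancer cell lines grown in 1536-well plates for 5 days after pin-tool dosing on the day after seeding. Dosing used one drug alone or a fixed anchor-drug dose plus five library-drug doses (not always all listed) in √10 steps, and values are medians of duplicate plates.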

YM155 + OSI-027 = compound: COCC[n+]1c2c(n(Cc3cnccn3)c1C)C(=O)c1ccccc1C2=O [YM155] + COc1cccc2cc(-c3nc([C@H]4CC[C@H](C(=O)O)CC4)n4ncnc(N)c34)[nH]c12 [OSI-027] (partner 0.5 µM)
Procedure, shortened: as §1

YM155 + Decitabine = compound: COCC[n+]1c2c(n(Cc3cnccn3)c1C)C(=O)c1ccccc1C2=O [YM155] + Nc1ncn([C@H]2C[C@H](O)[C@@H](CO)O2)c(=O)n1 [Decitabine] (partner 2 µM)
Procedure, shortened: as §1

YM155 + Olaparib = compound: COCC[n+]1c2c(n(Cc3cnccn3)c1C)C(=O)c1ccccc1C2=O [YM155] + O=C(c1cc(Cc2n[nH]c(=O)c3ccccc23)ccc1F)N1CCN(C(=O)C2CC2)CC1 [Olaparib] (partner 8 µM)
Procedure, shortened: as §1

| Cell Line | relative viability (Quizartinib + Pemetrexed; first compound 0.003162 µM) | relative viability (Quizartinib + Pemetrexed; first compound 0.01 µM) | relative viability (Quizartinib + Pemetrexed; first compound 0.03162 µM) | relative viability (Quizartinib + Pemetrexed; first compound 0.1 µM) | relative viability (YM155 + OSI-027; first compound 0.002 µM) | relative viability (YM155 + OSI-027; first compound 0.006325 µM) | relative viability (YM155 + OSI-027; first compound 0.02 µM) | relative viability (YM155 + OSI-027; first compound 0.06325 µM) | relative viability (YM155 + Decitabine; first compound 0.002 µM) | relative viability (YM155 + Decitabine; first compound 0.006325 µM) | relative viability (YM155 + Decitabine; first compound 0.02 µM) | relative viability (YM155 + Decitabine; first compound 0.06325 µM) | relative viability (YM155 + Olaparib; first compound 0.002 µM) | relative viability (YM155 + Olaparib; first compound 0.006325 µM) | relative viability (YM155 + Olaparib; first compound 0.02 µM) | relative viability (YM155 + Olaparib; first compound 0.06325 µM) | relative viability (Quizartinib + Pemetrexed; first compound 0.001 µM) |
| --- | --- | --- | --- | --- | --- | --- | --- | --- | --- | --- | --- | --- | --- | --- | --- | --- | --- |
| EKVX | 0.363 | 0.434 | 0.39 | 0.351 | 0.683 | 0.759 | 0.683 | 0.687 | 0.332 | 0.389 | 0.312 | 0.228 | 0.912 | 0.875 | 0.854 | 0.401 |  |
| EMC-BAC-2 | 0.44 | 0.451 |  | 0.493 | 0.388 | 0.364 | 0.374 | 0.382 | 1.01 | 1.05 | 0.948 | 0.651 | 0.444 | 0.44 | 0.392 | 0.301 | 0.365 |
| EPLC-272H | 0.361 | 0.4 | 0.26 | 0.305 | 0.287 | 0.312 | 0.286 | 0.251 | 0.322 | 0.33 | 0.352 | 0.365 | 0.825 | 0.891 | 0.722 | 0.811 | 0.255 |
| H3255 | 0.579 | 0.546 | 0.593 | 0.586 | 0.577 | 0.56 | 0.652 | 0.569 | 0.533 | 0.645 | 0.622 | 0.558 | 0.577 | 0.581 | 0.578 | 0.508 | 0.531 |
| HARA | 0.266 | 0.266 | 0.222 | 0.304 | 0.495 | 0.51 | 0.792 | 0.505 |  | 0.566 | 0.578 | 0.57 |  | 0.815 | 0.76 | 0.935 | 0.257 |
| HCC-15 | 0.21 | 0.248 | 0.216 | 0.224 | 0.693 | 0.758 | 0.721 | 0.534 | 0.634 | 0.627 | 0.704 | 0.658 | 0.668 | 0.763 | 0.696 | 0.666 | 0.223 |
| IA-LM |  |  |  |  |  |  |  |  |  |  |  |  | 0.836 | 0.891 | 0.879 | 0.642 |  |
| NCI-H727 |  |  |  |  | 0.473 | 0.612 | 0.703 | 0.595 | 0.871 | 1.01 | 0.867 | 0.857 | 0.775 | 0.722 | 0.66 | 0.729 |  |
| NCI-H1299 |  |  |  |  |  |  |  |  |  |  |  |  | 1 | 0.998 | 0.971 | 0.875 |  |
| NCI-H1563 | 0.788 | 0.8 | 0.717 | 0.76 | 0.752 | 0.754 | 0.652 | 0.741 |  |  |  |  |  |  |  |  | 1.18 |
| NCI-H1623 |  |  |  |  | 0.469 | 0.456 | 0.471 | 0.701 |  |  |  |  |  |  |  |  |  |
| NCI-H1703 |  |  |  |  |  |  |  |  |  |  |  |  | 0.499 | 0.403 | 0.346 | 0.387 |  |
| NCI-H2228 | 0.311 | 0.355 | 0.316 | 0.317 | 0.612 | 0.689 | 0.605 | 0.713 |  |  |  |  | 0.67 | 0.597 | 0.809 | 0.581 | 0.288 |
